# Reference: patent US4067997A, “Synergistic microbecidal composition and method” (priority 1976, dated 1978)
# Where a name gives a salt, the structure may show the parent alone. Read-outs that look alike come from different tables or passages of the source.
# Assays:
# Escherichia coli = assay: MIC on mass basis (Example V procedure); assay type: cell-based
# Protocol: (§1) The essential procedure of Example I was followed with a series of phenolic compounds, with the exception that the test method was conducted on a mass (μg/ml) basis rather than a molecular (mol/ml) basis of the foregoing tests, since the long established phenol-coeffecient test is on a mass rather than molecular basis. Additionally, a different but closely related group of organisms were used in this test, in order to give a complete representative span on gram-negative, gram-positive and fungus organisms. Additionally, the phenolic derivatives chosen for test purposes include a number of derivatives which are presently accepted by the FDA as food-grade phenolic microbicides.
# (§2) The same procedure of Example V was repeated but with combinations of mono-laurin (GML).
# (§3) The procedure of Example V was repeated with combinations of glycerol mono-laurin (GML) and ethylenediamine tetraacetic acid (EDTA) as the calcium salt and in combination with BHA.
# Streptococcus agalactiae = assay: MIC on mass basis (Example V procedure); assay type: cell-based
# Protocol: as §1, §2, §3
# Nocardia asteroides [1] = assay: MIC on mass basis (Example V procedure); assay type: cell-based
# Protocol: as §1, §2, §3
# Saccharomyces cerevisiae = assay: MIC on mass basis (Example V procedure); assay type: cell-based
# Protocol: as §1, §2, §3
# Staphylococcus aureus = assay: MIC on mass basis (Example V procedure); assay type: cell-based
# Protocol: as §1, §2, §3
# Candida albicans = assay: MIC on mass basis (Example V procedure); assay type: cell-based
# Protocol: as §1, §2, §3
# Pseudomonas aeruginosa = assay: MIC on mass basis (Example V procedure); assay type: cell-based
# Protocol: as §1, §2, §3
# Streptococcus mutans = assay: MIC on mass basis (Example V procedure); assay type: cell-based, Streptococcus mutans (ATCC 10441)
# Protocol: as §1, §2, §3
# Corynebacterium sp. = assay: MIC on mass basis (Example V procedure); assay type: cell-based
# Protocol: as §1
# Streptococcus pyogenes = assay: MIC on mass basis (Example V procedure); assay type: cell-based; conditions: Streptococcus pyogenes
# Protocol: as §1
# [2] = test system: Streptococcus faecalis (Group D); assay: MIC on mass basis (Example V procedure); assay type: cell-based; conditions: Enterococcus faecalis
# Protocol: as §1
# Nocardia asteroides [3] = assay: MIC, broth dilution (Examples I/II); assay type: cell-based, Nocardia asteroids (3308); conditions: Nocardia asteroides, read-out: Inhibitory concentration
# Protocol: (§4) In order to establish comparative bactericidal and fungicidal results with homologous fatty acids, a series of experiments was performed with thirty straight-chain fatty acids and derivatives thereof. Eight different gram-negative and twelve different gram-positive organisms, representing a very broad spectrum of organisms, were used in these experiments including the fungus Candida (a yeast). Additionally, fatty acids were chosen to show the effects of saturation versus unsaturation, in the fatty acid claim. Standard solutions of the fatty acids and their derivatives were prepared by first dissolving the weighed compounds in 1 to 2 ml of 95% ethanol and immediately pouring this solution into 200 ml of Tripticase Soy Broth. These lipid compounds which are insoluble in water and broth precipitated into very small crystals or droplets. The tubes containing the suspension were warmed to approximately 70° C and were then placed in an ultrasonic tank for further solubilization of the lipid derivatives.
# (§5) Standard solutions (or suspensions) at 1,000 μg/ml were twofold serially diluted with additional broth to a concentration of 125 μg/ml. A 4-ml amount of each dilution was then quickly, and with constant agitation, dispensed into appropriately labeled screw-capped glass tubes (16 by 125 mm). The tubes were sterilized with steam at 15 psi for 15 minutes. After sterilization, all tubes were cooled and incubated overnight at 35° C to insure sterility.
# (§6) All compounds were compared on a molar (micromoles/milliliter) rather than on a mass basis. In the following lists of organisms used, those followed by a parenthetical number are registered with the American Type Culture Collection (ATCC); the remainder were isolates from Providence Hospital or Northland Laboratory.
# (§7) One drop (0.04 ± 0.01 ml) of an 18-hr broth culture containing 10^7 and 10^9 organisms/ml was added to each dilution of the test compound, as well as to a tube of plain broth which served as the positive control. After inoculation, the contents of each tube were well mixed, and the tubes were incubated at 35° C in a 5% carbon dioxide + […] atmosphere.
# (§8) The MIC is defined as the lowest concentration of compound at which no […] evidence of growth was observed when turbidity of the inoculated broth dilutions was compared with control tubes. […] Only a one-tube difference between the bactericidal and bacteriostatic concentrations was normally observed.
# (§9) Standard solutions (1000 μg/ml) of three fatty acids and polyglycerol esters thereof were prepared as described in Example I. Also sucrose esters were prepared by transferring the weighed compounds (0.2 gm. dissolved in 1 ml absolute methanol) into 200 ml of sterile Trypticase Soy Broth (TSB). These standard solutions (1000 μg/ml) were twofold serially diluted with additional sterile broth to a concentration of 125 μg/ml. A 3.8 aliquot of each dilution was asceptically delivered into sterile screw-capped culture tubes. All tubes were incubated overnight at 36° C to insure sterility. The microorganisms used in this example were the same as those used in Example I.
# (§10) The inoculum, 0.05 ml of an 13-24 hour TSB culture (approximately 10^9 organisms/ml) was asceptically delivered into all dilutions of the compounds, mixed well, and incubated at 36° C. A tube of inoculated broth without the compound served as a positive control and an uninoculated set of dilutions incubated along with the test dilutions, served as a negative control.
# (§11) In those cases in which the test compound itself caused turbidity, an aliquot (0.015 ml) of the mixed broth was inoculated onto an agar plate and incubated at 36° C for examination, as described in Example I. The control procedure of Example I was also repeated. The lauric, capric, and oleic acids were used as internal controls and for comparison to Example I. The minimal inhibitory concentrations (μmole/ml) for the compounds studied are given in Tables 7 and 8.
# Streptococcus Group A = assay: MIC, broth dilution (Examples I/II); assay type: cell-based, beta-hemolytic streptococci Group A; conditions: read-out: Inhibitory concentration, Group A Strep
# Protocol: as §4, §5, §6, §7, §8, §9, §10, §11
# [4] = Escherichia coli, Table 11, Escherichia coli, read-out: MIC
# [5] = Streptococcus agalactiae, Table 11, Strepococcus agalactiae, read-out: MIC
# [6] = Table 11, Nocardia asteroides, read-out: MIC
# [7] = Staphylococcus aureus, Table 11, Staphylococcus aureus, read-out: MIC
# [8] = Candida albicans, Table 11, Candida albicans, read-out: MIC
# [9] = Pseudomonas aeruginosa, Table 11, Pseudomonas aeruginosa, read-out: MIC
# [10] = Streptococcus mutans, Table 11, Strepococcus mutans, read-out: MIC
# [11] = Table 11, Corynebacterium sp., read-out: MIC
molecule,measurement,setting,value
3(2)-tert-butyl-4-methoxyphenol [BHA],MIC,"Escherichia coli; Table 11, Escherichia coli","> 1,000 μg/ml"
same,MIC,"Escherichia coli; Table 13, Escherichia coli",500 µg/mL
same,MIC,"Escherichia coli; Table 14, Escherichia coli",500 µg/mL
same,MIC,"Streptococcus agalactiae; Table 11, Strepococcus agalactiae",125 µg/mL
same,MIC,"Streptococcus agalactiae; Table 13, Streptococcus agalactiae",62.50 µg/mL
same,MIC,"Streptococcus agalactiae; Table 14, Streptococcus agalactiae",62.50 µg/mL
same,MIC,"Nocardia asteroides [1]; Table 11, Nocardia asteroides",125 µg/mL
same,MIC,"Nocardia asteroides [1]; Table 13, Nocardia asteroides",62.50 µg/mL
same,MIC,"Nocardia asteroides [1]; Table 14, Nocardia asteroides",62.50 µg/mL
same,MIC,"Saccharomyces cerevisiae; Table 13, Saccharomyces cerevisiae",125 µg/mL
same,MIC,"Saccharomyces cerevisiae; Table 14, Saccharomyces cerevisiae",125 µg/mL
same,MIC,"Staphylococcus aureus; Table 11, Staphylococcus aureus",125 µg/mL
same,MIC,"Staphylococcus aureus; Table 13, Staphylococcus aureus",125 µg/mL
same,MIC,"Staphylococcus aureus; Table 14, Staphylococcus aureus",125 µg/mL
same,MIC,"Candida albicans; Table 11, Candida albicans",125 µg/mL
same,MIC,"Candida albicans; Table 13, Candida albicans",125 µg/mL
same,MIC,"Candida albicans; Table 14, Candida albicans",125 µg/mL
same,MIC,"Pseudomonas aeruginosa; Table 11, Pseudomonas aeruginosa","> 1,000 μg/ml"
same,MIC,"Pseudomonas aeruginosa; Table 13, Pseudomonas aeruginosa","> 1,000 μg/ml"
same,MIC,"Pseudomonas aeruginosa; Table 14, Pseudomonas aeruginosa","> 1,000 μg/ml"
same,MIC,"Streptococcus mutans; Table 11, Strepococcus mutans",62.50 µg/mL
same,MIC,"Streptococcus mutans; Table 13, Streptococcus mutans",62.50 µg/mL
same,MIC,"Streptococcus mutans; Table 14, Streptococcus mutans",62.50 µg/mL
same,MIC,"Corynebacterium sp.; Table 11, Corynebacterium sp.",62.50 µg/mL
"CC(C)(C)c1ccc(C(C)(C)C)c(O)c1 [2,5-di-tert-butylphenol]",MIC,Escherichia coli; Escherichia coli,> 1000 µg/mL
same,MIC,Streptococcus agalactiae; Streptococcus agalactiae,15.6 µg/mL
same,MIC,Nocardia asteroides [1]; Nocardia asteroides,7.8 µg/mL
same,MIC,Saccharomyces cerevisiae; Saccharomyces cerevisiae,62.5 µg/mL
same,MIC,Staphylococcus aureus; Staphylococcus aureus,62.5 µg/mL
same,MIC,Candida albicans; Candida albicans,> 1000 µg/mL
same,MIC,Pseudomonas aeruginosa; Pseudomonas aeruginosa,> 1000 µg/mL
same,MIC,Streptococcus mutans; Streptococcus mutans,7.8 µg/mL
same,MIC,Corynebacterium sp.; Corynebacterium,7.8 µg/mL
"CC(C)(C)c1cc(C(C)(C)C)c(O)c(C(=O)O)c1O [3,5-di-tert-butyl-2,6-dihydroxbenzoic]",MIC,Escherichia coli; [4],> 1000 µg/mL
same,MIC,Streptococcus agalactiae; [5],15.6 µg/mL
same,MIC,Nocardia asteroides [1]; [6],15.6 µg/mL
same,MIC,Saccharomyces cerevisiae; Saccharomyces cerevisiae,500 µg/mL
same,MIC,Staphylococcus aureus; [7],31.2 µg/mL
same,MIC,Candida albicans; [8],500 µg/mL
same,MIC,Pseudomonas aeruginosa; [9],> 1000 µg/mL
same,MIC,Streptococcus mutans; [10],31.2 µg/mL
same,MIC,Corynebacterium sp.; [11],15.6 µg/mL
"CC(C)(C)c1cc(O)cc(C(C)(C)C)c1 [3,5-di-tert-butylphenol]",MIC,Escherichia coli; Escherichia coli,> 1000 µg/mL
same,MIC,Streptococcus agalactiae; Streptococcus agalactiae,31.2 µg/mL
same,MIC,Nocardia asteroides [1]; Nocardia asteroides,15.6 µg/mL
same,MIC,Saccharomyces cerevisiae; Saccharomyces cerevisiae,62.5 µg/mL
same,MIC,Staphylococcus aureus; Staphylococcus aureus,31.2 µg/mL
same,MIC,Candida albicans; Candida albicans,62.5 µg/mL
same,MIC,Pseudomonas aeruginosa; Pseudomonas aeruginosa,> 1000 µg/mL
same,MIC,Streptococcus mutans; Streptococcus mutans,15.6 µg/mL
same,MIC,Corynebacterium sp.; Corynebacterium,15.6 µg/mL
"CC(C)(C)c1cc(C(C)(C)C)c(O)cc1O [4,6-di-tert-butylresorcinol]",MIC,Escherichia coli; [4],> 1000 µg/mL
same,MIC,Streptococcus agalactiae; [5],15.6 µg/mL
same,MIC,Nocardia asteroides [1]; [6],7.8 µg/mL
same,MIC,Saccharomyces cerevisiae; Saccharomyces cerevisiae,15.6 µg/mL
same,MIC,Staphylococcus aureus; [7],15.6 µg/mL
same,MIC,Candida albicans; [8],62.5 µg/mL
same,MIC,Pseudomonas aeruginosa; [9],> 1000 µg/mL
same,MIC,Streptococcus mutans; [10],7.8 µg/mL
same,MIC,Corynebacterium sp.; [11],7.8 µg/mL
"O=C(O)CN(CCN(CC(=O)O)CC(=O)O)CC(=O)O [EDTA (N2 Ca salt), ethylenediamine tetraacetic acid]",MIC,"Escherichia coli; Escherichia coli, Table 14, Escherichia coli",< 1000 µg/mL
same,MIC,Streptococcus agalactiae; Streptococcus agalactiae,> 1000 µg/mL
same,MIC,Nocardia asteroides [1]; Nocardia asteroides,1000 µg/mL
same,MIC,"Saccharomyces cerevisiae; Saccharomyces cerevisiae, Table 14, Saccharomyces cerevisiae, read-out: MIC",> 1000 µg/mL
same,MIC,Staphylococcus aureus; Staphylococcus aureus,> 1000 µg/mL
same,MIC,Candida albicans; Candida albicans,> 1000 µg/mL
same,MIC,Pseudomonas aeruginosa; Pseudomonas aeruginosa,> 1000 µg/mL
same,MIC,Streptococcus mutans; Streptococcus mutans,500 µg/mL
"O=C(O)CN(CCN(CC(=O)O)CC(=O)O)CC(=O)O [EDTA, ethylenediamine tetraacetic acid]",MIC,"Escherichia coli; Escherichia coli, Table 16, Escherichia coli, no unit in table (Example 5 procedure, mass basis)",> 1000 µg/mL
same,MIC,"Escherichia coli; Escherichia coli, read-out: MIC of EDTA alone, Table 17, 0 amount of GML",> 10000 µg/mL
same,MIC,"Nocardia asteroides [1]; Nocardia asteroides, read-out: MIC of EDTA alone",500 µg/mL
same,MIC,"Nocardia asteroides [1]; Table 16, Nocardia asteroides, no unit in table","1,000"
same,MIC,"Saccharomyces cerevisiae; Saccharomyces cerevisiae, Table 16, Saccharomyces cerevisiae, no unit in table, read-out: MIC",1000 µg/mL
same,MIC,"Saccharomyces cerevisiae; Saccharomyces cerevisiae, Table 17, 0 amount of GML, read-out: MIC of EDTA alone",1000 µg/mL
same,MIC,"Staphylococcus aureus; Staphylococcus aureus, read-out: MIC of EDTA alone",5000 µg/mL
same,MIC,"Staphylococcus aureus; Table 16, Staphylococcus aureus, no unit in table","> 1,000"
same,MIC,"Candida albicans; Candida albicans, read-out: MIC of EDTA alone",5000 µg/mL
same,MIC,"Candida albicans; Table 16, Candida albicans, no unit in table","> 1,000"
same,MIC,"Pseudomonas aeruginosa; Pseudomonas aeruginosa, read-out: MIC of EDTA alone",5000 µg/mL
same,MIC,"Pseudomonas aeruginosa; Table 16, Pseudomonas aeruginosa, no unit in table","> 1,000"
same,MIC,Streptococcus pyogenes,1000 µg/mL
same,MIC,Streptococcus pyogenes; read-out: MIC of EDTA alone,1000 µg/mL
same,MIC,[2],> 1000 µg/mL
same,MIC,[2]; read-out: MIC of EDTA alone,5000 µg/mL
same,MIC,Corynebacterium sp.; Corynebacterium,1000 µg/mL
same,MIC,"Corynebacterium sp.; Corynebacterium, read-out: MIC of EDTA alone",1000 µg/mL
CCCCCCCCCCC(O)C(=O)O (stereo not drawn) [α-hydroxylaurate],MIC,Nocardia asteroides [3],4630 µM
same,MIC,Streptococcus Group A,230 µM
